Where a SMILES comes first, the peptide text is derived from it. Where no end group is shown, it is not given here. [ ]: non-standard residue; d: D form. ξ: configuration not given here. ξαMeBip(2'-Et,4'-OMe) = CCc1cc(OC)ccc1-c1ccc(CC(C)(N)C(=O)O)cc1; Bip(2'-Et-4'-OMe) = CCc1cc(OC)ccc1-c1ccc(C[C@H](N)C(=O)O)cc1; ξαMePhe(2,6-F2) = CC(N)(Cc1c(F)cccc1F)C(=O)O; αMePhe(2-F) = C[C@](N)(Cc1ccccc1F)C(=O)O; ξαMe(hhPhe) = CC(N)(CCCc1ccccc1)C(=O)O; ξαMePhe(2-F) = CC(N)(Cc1ccccc1F)C(=O)O; αMeD = C[C@](N)(CC(=O)O)C(=O)O; ξhhPhe = NC(CCCc1ccccc1)C(=O)O; αMeAPPA = not defined here; αMeS = C[C@](N)(CO)C(=O)O; ξαMeS = CC(N)(CO)C(=O)O; Aib = CC(C)(N)C(=O)O
Experiments:
[1] = Stability in simulated gastric fluid; format: in vitro ADME; settings: 2 μM, 37° C.; for % degradation in 24 h when incubated with simulated gastric fluid: pH 1.5, 24 h; for half-life: simulated gi fluid, pH 1.5, read-out: half-life (t1/2) in simulated gastric fluid
Description: (§1) Reactions were terminated by the addition of TFA/H2O ([…], 10% (v/v)). […] The column was equilibrated with TFA/H20, at a flow rate of 1 mL/min. […] The absorbance was monitored at 206 nm using UV detector and peaks were collected manually prior to ESI-MS analysis.

[2] = Stability in simulated intestinal fluid; format: in vitro ADME; settings: 2 μM, 37° C.; for % degradation in 24 h when incubated with simulated intestinal fluid: pH 7.5, 24 h; for half-life: simulated gi fluid, pH 7.5, read-out: half-life (t1/2) in simulated intestinal fluid
Description: as §1

DPP IV enzyme = DPP IV enzyme (Homo sapiens, UniProt P27487); assay: Stability against DPP IV enzyme; format: in vitro ADME; settings: 2 μM, 37° C.; for half-life: read-out: half-life (t1/2) with DPP-IV enzyme
Sequence of DPP IV enzyme (P27487 whole entry, species assumed): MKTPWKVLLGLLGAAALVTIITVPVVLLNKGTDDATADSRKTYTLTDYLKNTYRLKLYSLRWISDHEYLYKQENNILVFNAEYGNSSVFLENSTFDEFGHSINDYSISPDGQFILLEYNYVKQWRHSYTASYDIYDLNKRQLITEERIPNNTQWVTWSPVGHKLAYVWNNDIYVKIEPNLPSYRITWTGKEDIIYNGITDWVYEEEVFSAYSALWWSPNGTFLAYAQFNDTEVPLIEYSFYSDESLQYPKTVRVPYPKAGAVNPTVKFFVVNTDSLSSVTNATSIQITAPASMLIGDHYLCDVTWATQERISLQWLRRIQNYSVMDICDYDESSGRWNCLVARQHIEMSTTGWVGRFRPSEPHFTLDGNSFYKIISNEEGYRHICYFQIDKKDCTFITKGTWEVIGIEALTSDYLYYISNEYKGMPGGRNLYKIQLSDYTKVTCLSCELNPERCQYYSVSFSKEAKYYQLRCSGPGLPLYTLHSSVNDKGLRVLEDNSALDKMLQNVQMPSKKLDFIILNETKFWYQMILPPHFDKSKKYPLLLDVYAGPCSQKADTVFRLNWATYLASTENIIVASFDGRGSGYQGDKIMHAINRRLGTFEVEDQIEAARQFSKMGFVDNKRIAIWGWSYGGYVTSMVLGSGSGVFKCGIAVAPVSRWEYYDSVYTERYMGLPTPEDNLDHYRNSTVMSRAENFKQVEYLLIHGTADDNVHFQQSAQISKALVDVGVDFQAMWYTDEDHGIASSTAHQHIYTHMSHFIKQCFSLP

[3] = Stability in human plasma; format: in vitro ADME; settings: 2 μM, 37° C.; for half-life: human, plasma, read-out: half-life (t1/2) in human plasma
[4] = system: RIN5F (Rat Insulinoma) cells; assay: In vitro glucose-dependent insulin secretion (RIN5F cell assay); format: cell-based; settings: 16.7-mM glucose load, n = 3, mean ± S.D.
How it was run: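 Rat RIN5F cells were preincubated 40 min in Krebs-Ringer buffer with 1.1 mM glucose and 0.5% BSA, pH 7.4, then exposed to test peptidomimetics for 30 min at 37 °C with 16.7 mM or 0 mM glucose. Supernatant insulin was measured by rat insulin ELISA and normalised to total protein (BCA), as pg/μg.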

[5] = Stability in liver microsomes; format: in vitro ADME, human; settings: 2 μM, 37° C.; for half-life: human, microsomes, read-out: half-life (t1/2) in liver microsomes
Description: as §1

human GLP-1 receptor = human GLP-1 receptor (human, UniProt P43220 24-463); assay: cell-based or functional assay

Molecule | % degradation in 24 h when incubated with simulated gastric fluid [1] [%] | half-life [1] [min] | % degradation in 24 h when incubated with simulated intestinal fluid [2] [%] | half-life [2] [min] | % degradation in 24 h when incubated with DPP-IV enzyme (DPP IV enzyme) [%] | half-life (DPP IV enzyme) [min] | % degradation in 24 h when incubated with human plasma [3] [%] | half-life [3] [min] | Insulin secretion ([4]; 0.1 nM test compd.) [pg/µg/h] | Insulin secretion ([4]; 1 nM test compd.) [pg/µg/h] | Insulin secretion ([4]; 10 nM test compd.) [pg/µg/h] | half-life (t1/2) in liver microsomes [5] | % degradation in 24 h when incubated with liver microsomes [5] [%] | half-life [5] [min] | half-life (t1/2) in human plasma [3] | EC50, in-vitro human GLP-1 receptor agonistic activity (cAMP) (human GLP-1 receptor) [nM]
CCc1cc(OC)ccc1-c1ccc(CC(C)(NC(=O)[C@H](CC(=O)O)NC(=O)C(C)(CO)NC(=O)[C@@H](NC(=O)[C@H](Cc2ccccc2)NC(=O)[C@@H](NC(=O)CNC(=O)[C@H](CCC(=O)O)NC(=O)[C@H](C)NC(=O)[C@H](Cc2c[nH]cn2)NC(=O)[C@@H](N)C(C)C)[C@@H](C)O)[C@@H](C)O)C(=O)NC(CCCc2ccccc2)C(N)=O)cc1 (stereo partly drawn) [compound 38] (H-VHAEGTFT[ξαMeS]D[ξαMeBip(2'-Et,4'-OMe)][ξhhPhe]-NH2) | 00 | > 1440 | 00 | > 1440 | 00 | > 1440 | 00 | > 1440 | 13.1 ± 0.11 | 14.9 ± 0.17 | 28.8 ± 0.44 | (5) h | 31 |  |  | 
CCc1cc(OC)ccc1-c1ccc(CC(C)(NC(=O)[C@H](CC(=O)O)NC(=O)[C@H](CO)NC(=O)[C@@H](NC(=O)[C@H](Cc2ccccc2)NC(=O)[C@@H](NC(=O)CNC(=O)[C@H](CCC(N)=O)NC(=O)[C@H](CO)NC(=O)[C@H](Cc2c[nH]cn2)NC(=O)[C@@H](NC(=O)[C@@H](N)C(C)C)C(C)C)[C@@H](C)O)[C@@H](C)O)C(=O)NC(CCCc2ccccc2)C(N)=O)cc1 (stereo partly drawn) [compound 205] (H-VVHSQGTFTSD[ξαMeBip(2'-Et,4'-OMe)][ξhhPhe]-NH2) | 43 | 240 | 00 | > 1440 | 00 | > 1440 | 00 | > 1440 | 12.6 ± 0.25 | 15.3 ± 0.31 | 29.7 ± 0.48 |  | 84 | 120 |  | 
CCc1cc(OC)ccc1-c1ccc(CC(C)(NC(=O)[C@H](CC(=O)O)NC(=O)C(C)(CO)NC(=O)[C@@H](NC(=O)C(C)(Cc2c(F)cccc2F)NC(=O)[C@@H](NC(=O)CNC(=O)[C@H](CCC(N)=O)NC(=O)[C@H](C)NC(=O)[C@H](Cc2c[nH]cn2)NC(=O)[C@@H](N)C(C)C)[C@@H](C)O)[C@@H](C)O)C(=O)NC(CCCc2ccccc2)C(N)=O)cc1 (stereo partly drawn) [compound 50] (H-VHAQGT[ξαMePhe(2,6-F2)]T[ξαMeS]D[ξαMeBip(2'-Et,4'-OMe)][ξhhPhe]-NH2) | 100 | 30 | 100 | 30 | 75 |  | 77 |  | 12.9 ± 0.14 | 15.8 ± 0.13 | 29.9 ± 0.15 |  | 100 | 30 | (9) h | 
CCc1cc(OC)ccc1-c1ccc(CC(C)(NC(=O)[C@H](CC(=O)O)NC(=O)C(C)(CO)NC(=O)[C@@H](NC(=O)C(C)(Cc2ccccc2F)NC(=O)[C@@H](NC(=O)CNC(=O)[C@H](CCC(N)=O)NC(=O)[C@H](CO)NC(=O)[C@H](Cc2c[nH]cn2)NC(=O)[C@@H](N)C(C)C)[C@@H](C)O)[C@@H](C)O)C(=O)NC(C)(CCCc2ccccc2)C(N)=O)cc1 (stereo partly drawn) [compound 165] (H-VHSQGT[ξαMePhe(2-F)]T[ξαMeS]D[ξαMeBip(2'-Et,4'-OMe)][ξαMe(hhPhe)]-NH2) | 100 | 30 | 100 | 30 | 72 |  | 70 |  | 12.1 ± 0.42 | 14.6 ± 0.41 | 27.8 ± 0.46 |  | 100 | 30 | (9) h | 
VH[Aib]EGT[αMePhe(2-F)]T[αMeS][αMeD][Bip(2'-Et-4'-OMe)][αMeAPPA] (not fully specified (C-terminus); reading uncertain) [Seq. ID. No. 121] |  |  |  |  |  |  |  |  |  |  |  |  |  |  |  | 8
